Experimental data from patent US11161839B2, “2-quinolone derived inhibitors of BCL6” (Cancer Research Technology Limited, priority 2017, dated 2021).

How the values were obtained:
[1] = target: human BCL6 BTB domain (Trx-6xHis-BCL6) (Homo sapiens (Human), UniProt P41182); test: HTRF in vitro assay (BCL6 BTB domain / BCOR-AF633 peptide); type: binding; settings: for IC50: read-out: HTRF pIC50 (converted)
[2] = target: BCL6-NCOR2(SMRT) corepressor protein-protein interaction (Homo sapiens (Human), UniProt P41182); test: NanoBRET cell assay in transfected HEK293T cells; type: cell-based; settings: further generated data (Table 2b); HEK293T cells, 6 hr; read-out: NanoBRET cell pIC50 (converted)
[3] = further generated data (Table 1b), 1 nM Trx-6xHis-BCL6, 0.5 nM anti-6xHis-Terbium cryptate
[4] = initially generated data (Table 1a), 10 nM Trx-6xHis-BCL6, 1 nM anti-6xHis-Terbium cryptate

SMILES	HTRF pIC50 [1, 3]	IC50 [2] [nM]	HTRF pIC50 [1, 4]	IC50 [1, 3] [nM]
Cc1cc(Nc2ccc3c(c2)c(NC(C)c2ncccn2)cc(=O)n3C)c(C#N)c(Cl)n1 (stereo not drawn) [Example 1w, 2-chloro-6-methyl-4-[[1-methyl-2-oxo-4-(1-pyrimidin-2-ylethylamino)-6-quinolyl]amino]pyridine-3-carbonitrile]	6.90	1580	6.29	
CC(Nc1nc(=O)n(C)c2ccc(Nc3ccnc(Cl)c3Cl)cc12)c1ncccn1 (stereo not drawn) [Example 6c, 6-((2,3-dichloropyridin-4-yl)amino)-1-methyl-4-((1-(pyrimidin-2-yl)ethyl)amino)quinazolin-2(1H)-one]	6.57	5500		
Cn1c(=O)cc(NC(C)(C)c2ncc(C3CC3)cn2)c2cc(Nc3cc(C(=O)N4CCC4)nc(Cl)c3C#N)ccc21 [Example 8b, 6-(azetidine-1-carbonyl)-2-chloro-4-((4-((2-(5-cyclopropylpyrimidin-2-yl)propan-2-yl)amino)-1-methyl-2-oxo-1,2-dihydroquinolin-6-yl)amino)nicotinonitrile]	7.86	741		
Cn1c(=O)cc(NC(C)(C)c2ncc(C3CC3)cn2)c2cc(Nc3ccnc(Cl)c3Cl)ccc21 [Example 6j, 4-((2-(5-cyclopropylpyrimidin-2-yl)propan-2-yl)amino)-6-((2,3-dichloropyridin-4-yl)amino)-1-methylquinolin-2(1H)-one]	6.84	1200		
C[C@@H](Nc1cc(=O)n(C)c2ccc(Nc3cc(C(=O)N4CCC4)nc(Cl)c3C#N)cc12)C1CC1 [Example 8c, (R)-6-(azetidine-1-carbonyl)-2-chloro-4-((4-((1-cyclopropylethyl)amino)-1-methyl-2-oxo-1,2-dihydroquinolin-6-yl)amino)nicotinonitrile]	7.02	501		
CNC(=O)c1cc(Nc2ccc3c(c2)c(NC(C)(C)c2ncccn2)cc(=O)n3C)c(C#N)c(Cl)n1 [Example 1u, 6-chloro-5-cyano-N-methyl-4-[[1-methyl-4-[(1-methyl-1-pyrimidin-2-yl-ethyl)amino]-2-oxo-6-quinolyl]amino]pyridine-2-carboxamide]	7.51	525	7.44	
C[C@@H]1CN(c2cnc(C(C)(C)Nc3cc(=O)n(C)c4ccc(Nc5ccnc(Cl)c5C#N)cc34)nc2)C[C@H](C)O1 [Example 7a, 2-Chloro-4-((4-((2-(5-((2R,6S)-2,6-dimethylmorpholino)pyrimidin-2-yl)propan-2-yl)amino)-1-methyl-2-oxo-1,2-dihydroquinolin-6-yl)amino)nicotinonitrile]	7.91	347		
Cn1c(=O)cc(NC(C)(C)c2ncccn2)c2cc(Nc3ccnc(Cl)c3C#N)cnc21 [Example 1x, 2-chloro-4-[[8-methyl-5-[(1-methyl-1-pyrimidin-2-yl-ethyl)amino]-7-oxo-1,8-naphthyridin-3-yl]amino]pyridine-3-carbonitrile]	7.20	1580	6.68	
C[C@@H](CO)Nc1cc(=O)n(C)c2ccc(Nc3ccnc(Cl)c3C#N)cc12 [Example 3g, (S)-2-Chloro-4-((4-((1-hydroxypropan-2-yl)amino)-1-methyl-2-oxo-1,2-dihydroquinolin-6-yl)amino)nicotinonitrile]	6.39	20900	6.43	
CC(Nc1nc(=O)n(C)c2ccc(Nc3nc(N4C[C@@H](C)O[C@@H](C)C4)ncc3Cl)cc12)c1ncccn1 (stereo partly drawn) [Example 26e, 6-[[5-chloro-2-[(2R,6S)-2,6-dimethylmorpholin-4-yl]pyrimidin-4-yl]amino)-1-methyl-4-(1-pyrimidin-2-ylethylamino)quinazolin-2-one]	7.03	2880		

The remaining lines, values ahead:

HTRF pIC50 [1, 3]	IC50 [2] [nM]	HTRF pIC50 [1, 4]	IC50 [1, 3] [nM]	SMILES
6.42	1780			C[C@@H](Nc1cc(=O)n(C)c2ccc(Nc3cc(C(=O)N4CCC4)ncc3Cl)cc12)C1CC1 [Example 15d, (R)-6-((2-(azetidine-1-carbonyl)-5-chloropyridin-4-yl)amino)-4-((1-cyclopropylethyl)amino)-1-methylquinolin-2(1H)-one]
6.17	15100			CC(Nc1cc(=O)n(C)c2ccc(Nc3ccnc(C#N)c3Cl)cc12)c1ncccn1 (stereo not drawn) [Example 19h, 3-chloro-4-((1-methyl-2-oxo-4-((1-(pyrimidin-2-yl)ethyl)amino)-1,2-dihydroquinolin-6-yl)amino)picolinonitrile]
	1290		302	C[C@@H](Nc1cc(=O)n(C)c2ccc(Nc3nc(N4CCC(C(=O)N(C)C)CC4)ncc3Cl)cc12)C1CC1 [Example 12b, (R)-1-(5-chloro-4-((4-((1-cyclopropylethyl)amino)-1-methyl-2-oxo-1,2-dihydroquinolin-6-yl)amino)pyrimidin-2-y1)-N,N-dimethylpiperidine-4-carboxamide]
6.19	8710			Cn1c(=O)cc(NC2(c3ncccn3)CC2)c2cc(Nc3ccnc(Cl)c3C#N)ccc21 [Example 10u, 2-chloro-4-((1-methyl-2-oxo-4-((1-(pyrimidin-2-yl)cyclopropyl)amino)-1,2-dihydroquinolin-6-yl)amino)nicotinonitrile]
6.57	2450			C[C@@H]1CN(c2ncc(Cl)c(Nc3ccc4c(c3)c(NC(C)(C)c3ncccn3)cc(=O)n4C)n2)C[C@H](C)O1 [Example 12f, 6-((5-chloro-2-((2S,6R)-2,6-dimethylmorpholino)pyrimidin-4-yl)amino)-1-methyl-4-((2-(pyrimidin-2-yl)propan-2-yl)amino)quinolin-2(1H)-one]
6.59	2000			COC[C@@H]1CCCN1C(=O)c1cc(Nc2ccc3c(c2)c(N[C@H](C)C2CC2)cc(=O)n3C)c(Cl)cn1 [Example 15a, 6-((5-Chloro-2-((S)-2-(methoxymethyl)pyrrolidine-1-carbonyl)pyridin-4-yl)amino)-4-(((R)-1-cyclopropylethyl)amino)-1-methylquinolin-2(1H)-one]
6.40	7080			CNC(=O)c1cc(Nc2ccc3c(c2)c(NC(C)c2ncccn2)cc(=O)n3C)c(C#N)c(C)n1 (stereo not drawn) [Example 18b, 5-cyano-N, 6-dimethyl-4-((1-methyl-2-oxo-4-((1-(pyrimidin-2-yl)ethyl)amino)-1,2-dihydroquinolin-6-yl)amino)picolinamide]
6.49	4790			Cn1c(=O)cc(NC2(C#N)CC2)c2cc(Nc3ccnc(Cl)c3C#N)ccc21 [Example 24b, 2-chloro-4-((4-((1-cyanocyclopropyl)amino)-1-methyl-2-oxo-1,2-dihydroquinolin-6-yl)amino)nicotinonitrile]
	3720		339	CC(Nc1cc(=O)n(C)c2ccc(Nc3nc(N4CCC(C(=O)N(C)C)CC4)ncc3Cl)cc12)c1ncccn1 (stereo not drawn) [Example 17c, 1-(5-chloro-4-((-methyl-2-oxo-4-((1-(pyrimidin-2yl)ethyl)amino)-1,2-dihydroquinolin-6-yl)amino)pyrimidin-2-yl)-N,N-dimethylpiperidine-4-carboxamide]
	2340		251	COC1CCC1Nc1cc(=O)n(C)c2ccc(Nc3ccnc(Cl)c3C#N)cc12 (racemic) [Example 22a, rac-2-chloro-4-((4-(((1R,2S)-2-methoxycyclobutyl)amino)-1-methyl-2-oxo-1,2-dihydroquinolin-6-yl)amino)nicotinonitrile or rac-2-chloro-4-((4-(((1R,2R)-2-methoxycyclobutyl)amino)-1-methyl-2-oxo-1,2-dihydroquinolin-6-yl)amino)nicotinonitrile]
6.38	3470			CC(Nc1cc(=O)n(C)c2ccc(Nc3ccnc(Cl)c3C#N)cc12)c1cc2ccccc2cn1 (stereo not drawn) [Example 24e, 2-chloro-4-((4-((1-(isoquinolin-3-yl)ethyl)amino)-1-methyl-2-oxo-1,2-dihydroquinolin-6-yl)amino)nicotinonitrile]
7.26	1620			CC(Nc1cc(=O)n(C)c2ccc(Nc3ccnc(Cl)c3C#N)cc12)c1ncc(C2CCC2)cn1 (stereo not drawn) [Example 24f, 2-chloro-4-((4-((1-(5-cyclobutylpyrimidin-2-yl)ethyl)amino)-1-methyl-2-oxo-1,2-dihydroquinolin-6-yl)amino)nicotinonitrile]
6.83	11000			CC(Nc1cc(=O)n(CCO)c2ccc(Nc3ccnc(Cl)c3C#N)cc12)c1ncccn1 (stereo not drawn) [Example 11j, 2-chloro-4-((1-(2-hydroxyethyl)-2-oxo-4-((1-(pyrimidin-2-yl)ethyl)amino)-1,2-dihydroquinolin-6-yl)amino)nicotinonitrile]
6.44	2690			CCOC(=O)c1cc(Nc2ccc3c(c2)c(NC(C)c2ncccn2)cc(=O)n3C)n2nccc2n1 (stereo not drawn) [Example 10q, ethyl 7-((1-methyl-2-oxo-4-((1-(pyrimidin-2-yl)ethyl)amino)-1,2-dihydroquinolin-6-yl)amino)pyrazolo[1,5-a]pyrimidine-5-carboxylate]
	6760		380	CNC(=O)c1cc(Nc2ccc3c(c2)c(NC2CCC2OC)cc(=O)n3C)c(C#N)c(Cl)n1 (racemic) [Example 23a, rac-6-chloro-5-cyano 4-((4-(((1R,2R)-2-methoxycyclobutyl)amino)-1-methyl-2-oxo-1,2-dihydroquinolin-6-yl)amino)-N-methylpicolinamide or rac-6-chloro-5-cyano-4-((4-(((1R,2S)-2-methoxycyclobutyl)amino)-1-methyl-2-oxo-1,2-dihydroquinolin-6-yl)amino)-N-methylpicolinamide]
